Laboratory results as given in patent US20230364119A1, “AUTOPHAGY ACTIVATOR” (Resonac Corporation, priority 2020, published 2023).

Experiments:
Format in all cases: cell-based
[1] = test system: LC3 gene; assay: LC3 gene expression promoting effect in human neuroblastoma in the presence of amyloid β
Description: (§1) In the presence of an autophagy activator, the expression levels of the LC3 gene, ATG5 gene, and Beclin 1 gene in human neuroblastoma (SH-SY5Y; obtained from ATCC) were measured by the following test method, and the effect of promoting the expression of the LC3 gene, ATG5 gene, and Beclin 1 gene by an autophagy activator was evaluated.
(§2) In the following examples and comparative examples, tests were performed by adding amyloid β, which is known to cause a decrease in autophagy in nerve cells, to each medium.
(§3) SH-SY5Y cells were prepared at a seeding density of 10000 cells/cm^2 and cultured for 24 hours in D-MEM medium/Ham's F-12 medium (manufactured by Sigma-Aldrich) to which 10% fetal bovine serum (manufactured by MP Biomedicals) was added. Next, in Example 15, the inositol derivative A dissolved in purified water was added to the medium such that the final concentration of the inositol derivative A was 10-4% (V/V). […]
(§4) Then, using Nucleospin (registered trademark) RNA kit (manufactured by Takara Bio Inc.), RNA was extracted from SH-SY5Y cells in each example, and cDNA was synthesized from the obtained RNA. Next, using this cDNA as a template, by quantitative real-time PCR, the expression level of each gene was quantified using primers (manufactured by Takara Bio Inc.) specific to the LC3 gene, ATG5 gene, and Beclin 1 gene, respectively. […]

[2] = test system: Beclin 1 gene; assay: Beclin 1 gene expression promoting effect in human neuroblastoma in the presence of amyloid β
Description: as §1, §2, §3, §4

[3] = test system: ATG5 gene; assay: ATG5 gene expression promoting effect in human senescent fibroblasts (quantitative real-time PCR)
Description: (§5) Senescent fibroblasts were prepared by the following procedure.
(§6) Normal human fibroblasts (NB1RGB, RIKEN BRC Cell Bank) were cultured until confluent in D-MEM medium (manufactured by Sigma-Aldrich) to which 10% fetal bovine serum (manufactured by MP Biomedicals) was added. Thereafter, the cells were treated with 250 μM aqueous hydrogen peroxide for 2 hours, and cultured for 24 hours in D-MEM medium to which fresh 10% fetal bovine serum was added. The treatment with aqueous hydrogen peroxide and the cell culture operation were repeated three times, and the obtained fibroblasts were used as senescent fibroblasts.
(§7) The prepared senescent fibroblasts were prepared at a seeding density of 10000 cells/cm^2 and cultured for 24 hours in D-MEM medium (manufactured by Sigma-Aldrich) to which 10% fetal bovine serum (manufactured by MP Biomedicals) was added. […]
as §4, with “senescent fibroblasts or normal human fibroblasts” for “SH-SY5Y cells”

[4] = test system: LC3 gene; assay: LC3 gene expression promoting effect in human senescent fibroblasts (quantitative real-time PCR)
Description: as §5, §6, §7
as §4, with “senescent fibroblasts or normal human fibroblasts” for “SH-SY5Y cells”

[5] = SH-SY5Y cells with amyloid β, compared to Reference Example 3 (purified water only, no amyloid β)
[6] = SH-SY5Y cells, 20 μM amyloid β present, 48 hours, 10^−3% (V/V) inositol or inositol derivative A, with the vitamin derivative of the example where added, Reference Example 3 (purified water, no amyloid β) = 1.00
[7] = 24 hours, 10^−3% (V/V) inositol or inositol derivative A, with the vitamin derivative of the example where added, GAPDH-standardized, Comparative Example 1 (purified water) = 1.00
[8] = compared to Comparative Example 1 (purified water only)

In the case of `O[C@H]1[C@H](O)[C@@H](O)[C@H](O)[C@@H](O)[C@H]1O` [Comparative Example 2, myo-inositol], the “expression level of the LC3 gene, in words” value [1, 5] is reported as “slightly increased”, the “Relative gene expression level LC3” value [1, 6] is reported as 1.41 and the “expression level of the Beclin 1 gene, in words” value [2, 5] is reported as “slightly increased”. For the same compound, the “Relative gene expression level Beclin 1” value [2, 6] was 1.31, the “Relative gene expression level ATG5” value [3, 7] was 1.21 and the “expression level of the ATG5 gene, in words” value [3, 8] was “more increased”. For the same compound, the “Relative gene expression level LC3” value [4, 7] was 0.77 and the “expression level of the LC3 gene, in words” value [4, 8] was “more decreased”.
